Measurements reported in the supplement of paper PMC10307832.

What was measured:
Experiment in all cases: relative viability (nuclei count vs DMSO), 5 days (fraction); higher = more cells survive
HCC-827 = system: HCC-827
Outline: (§1)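 Relative viability was taken as the ratio of nuclei in treated wells to nuclei in vehicle wells. Lung cancer cell lines in 1536-well plates received compounds by pin tool one day after seeding, either one drug alone or a fixed anchor-drug dose plus five library-drug doses (not always all listed) in √10 steps. Nuclei were counted on 4× images after 5 days of treatment, and values are medians of duplicate plates.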

LCLC-103H = system: LCLC-103H
Outline: as §1

H3255 = system: H3255
Outline: as §1

NCI-H2405 = system: NCI-H2405
Outline: as §1

NCI-H2087 = system: NCI-H2087
Outline: as §1

NCI-H520 = system: NCI-H520
Outline: as §1

NCI-H1793 = system: NCI-H1793
Outline: as §1

LU99A = system: LU99A
Outline: as §1

NCI-H1563 = system: NCI-H1563
Outline: as §1

COR-L23 = system: COR-L23
Outline: as §1

NCI-H838 = system: NCI-H838
Outline: as §1

SK-MES-1 = system: SK-MES-1
Outline: as §1

NCI-H2023 = system: NCI-H2023
Outline: as §1

EPLC-272H = system: EPLC-272H
Outline: as §1

NCI-H2085 = system: NCI-H2085
Outline: as §1

NCI-H1651 = system: NCI-H1651
Outline: as §1

HCC-44 = system: HCC-44
Outline: as §1

NCI-H1395 = system: NCI-H1395
Outline: as §1

NCI-H650 = system: NCI-H650
Outline: as §1

EMC-BAC-2 = system: EMC-BAC-2
Outline: as §1

NCI-H1944 = system: NCI-H1944
Outline: as §1

In the case of `O=c1cc(-c2cccc3c2Sc2ccccc2S3)oc(N2CCOCC2)c1` + C[C@]1(O)C[C@@H](c2nc(-c3ccc4ccc(-c5ccccc5)nc4c3)c3c(N)nccn32)C1 [Linsitinib] (partner 1 µM), the relative viability (HCC-827; first compound 0.08 µM) was 0.892, the relative viability (HCC-827; first compound 0.253 µM) was 0.979 and the relative viability (HCC-827; first compound 0.8 µM) was 0.925. For the same molecule, the relative viability (HCC-827; first compound 2.53 µM) was 0.848, the relative viability (HCC-827; first compound 8 µM) was 0.915 and the relative viability (LCLC-103H; first compound 0.08 µM) was 1.06. The relative viability (LCLC-103H; first compound 0.253 µM) was 1.1, the relative viability (LCLC-103H; first compound 0.8 µM) was 1.08 and the relative viability (LCLC-103H; first compound 2.53 µM) was 1.06. The relative viability (LCLC-103H; first compound 8 µM) was 1.06, the relative viability (H3255; first compound 0.08 µM) was 1.15 and the relative viability (H3255; first compound 0.253 µM) was 1.03. The relative viability (H3255; first compound 0.8 µM) was 1.02, the relative viability (H3255; first compound 2.53 µM) was 0.865 and the relative viability (H3255; first compound 8 µM) was 0.983. The relative viability (NCI-H2405; first compound 0.08 µM) was 0.878, the relative viability (NCI-H2405; first compound 0.253 µM) was 0.924 and the relative viability (NCI-H2405; first compound 0.8 µM) was 0.85. It also gave a relative viability (NCI-H2405; first compound 2.53 µM) of 0.822, a relative viability (NCI-H2405; first compound 8 µM) of 0.768 and a relative viability (NCI-H2087; first compound 0.08 µM) of 1.1. It also gave a relative viability (NCI-H2087; first compound 0.253 µM) of 1.03, a relative viability (NCI-H2087; first compound 0.8 µM) of 0.927 and a relative viability (NCI-H2087; first compound 2.53 µM) of 0.952. It also gave a relative viability (NCI-H2087; first compound 8 µM) of 1.01, a relative viability (NCI-H520; first compound 0.08 µM) of 0.897 and a relative viability (NCI-H520; first compound 0.253 µM) of 1.06. For the same molecule, the relative viability (NCI-H520; first compound 0.8 µM) was 1.15, the relative viability (NCI-H520; first compound 2.53 µM) was 0.972 and the relative viability (NCI-H520; first compound 8 µM) was 1.02. It also gave a relative viability (NCI-H1793; first compound 0.08 µM) of 0.674, a relative viability (NCI-H1793; first compound 0.253 µM) of 1.19 and a relative viability (NCI-H1793; first compound 0.8 µM) of 0.992. For the same molecule, the relative viability (NCI-H1793; first compound 2.53 µM) was 0.821, the relative viability (NCI-H1793; first compound 8 µM) was 0.919 and the relative viability (LU99A; first compound 0.08 µM) was 0.58. The relative viability (LU99A; first compound 0.253 µM) was 0.582, the relative viability (LU99A; first compound 0.8 µM) was 0.631 and the relative viability (LU99A; first compound 2.53 µM) was 0.544. The relative viability (LU99A; first compound 8 µM) was 0.608, the relative viability (NCI-H1563; first compound 0.08 µM) was 1.19 and the relative viability (NCI-H1563; first compound 0.253 µM) was 1.42. For the same molecule, the relative viability (NCI-H1563; first compound 0.8 µM) was 1.2, the relative viability (NCI-H1563; first compound 2.53 µM) was 1.2 and the relative viability (NCI-H1563; first compound 8 µM) was 1.06. For the same molecule, the relative viability (COR-L23; first compound 0.08 µM) was 0.958, the relative viability (COR-L23; first compound 0.253 µM) was 0.965 and the relative viability (COR-L23; first compound 0.8 µM) was 1.13. The relative viability (COR-L23; first compound 2.53 µM) was 1.08, the relative viability (COR-L23; first compound 8 µM) was 1.04 and the relative viability (NCI-H838; first compound 0.08 µM) was 0.958. It also gave a relative viability (NCI-H838; first compound 0.253 µM) of 1.49, a relative viability (NCI-H838; first compound 0.8 µM) of 0.821 and a relative viability (NCI-H838; first compound 2.53 µM) of 0.859. It also gave a relative viability (NCI-H838; first compound 8 µM) of 0.899, a relative viability (SK-MES-1; first compound 0.08 µM) of 1.12 and a relative viability (SK-MES-1; first compound 0.253 µM) of 1.16. The relative viability (SK-MES-1; first compound 0.8 µM) was 0.956, the relative viability (SK-MES-1; first compound 2.53 µM) was 1.08 and the relative viability (SK-MES-1; first compound 8 µM) was 1.05. For the same molecule, the relative viability (NCI-H2023; first compound 0.08 µM) was 0.611, the relative viability (NCI-H2023; first compound 0.253 µM) was 0.747 and the relative viability (NCI-H2023; first compound 0.8 µM) was 0.723. For the same molecule, the relative viability (NCI-H2023; first compound 2.53 µM) was 0.458, the relative viability (NCI-H2023; first compound 8 µM) was 0.416 and the relative viability (EPLC-272H; first compound 0.08 µM) was 1.12. The relative viability (EPLC-272H; first compound 0.253 µM) was 1.31, the relative viability (EPLC-272H; first compound 0.8 µM) was 1.3 and the relative viability (EPLC-272H; first compound 2.53 µM) was 1.19. The relative viability (EPLC-272H; first compound 8 µM) was 1.13, the relative viability (NCI-H2085; first compound 0.08 µM) was 0.812 and the relative viability (NCI-H2085; first compound 0.253 µM) was 0.911. For the same molecule, the relative viability (NCI-H2085; first compound 0.8 µM) was 0.925, the relative viability (NCI-H2085; first compound 2.53 µM) was 0.846 and the relative viability (NCI-H2085; first compound 8 µM) was 0.595. The relative viability (NCI-H1651; first compound 0.08 µM) was 1.06, the relative viability (NCI-H1651; first compound 0.253 µM) was 1.2 and the relative viability (NCI-H1651; first compound 0.8 µM) was 0.954. For the same molecule, the relative viability (NCI-H1651; first compound 2.53 µM) was 0.879, the relative viability (NCI-H1651; first compound 8 µM) was 0.865 and the relative viability (HCC-44; first compound 0.08 µM) was 0.681. The relative viability (HCC-44; first compound 0.253 µM) was 0.532, the relative viability (HCC-44; first compound 0.8 µM) was 0.696 and the relative viability (HCC-44; first compound 2.53 µM) was 0.623. It also gave a relative viability (HCC-44; first compound 8 µM) of 0.548, a relative viability (NCI-H1395; first compound 0.08 µM) of 1.25 and a relative viability (NCI-H1395; first compound 0.253 µM) of 1.06. The relative viability (NCI-H1395; first compound 0.8 µM) was 1.26, the relative viability (NCI-H1395; first compound 2.53 µM) was 0.941 and the relative viability (NCI-H1395; first compound 8 µM) was 1.07. For the same molecule, the relative viability (NCI-H650; first compound 0.08 µM) was 0.829, the relative viability (NCI-H650; first compound 0.253 µM) was 0.854 and the relative viability (NCI-H650; first compound 0.8 µM) was 0.782. It also gave a relative viability (NCI-H650; first compound 2.53 µM) of 0.642, a relative viability (NCI-H650; first compound 8 µM) of 0.7 and a relative viability (EMC-BAC-2; first compound 0.08 µM) of 0.828. The relative viability (EMC-BAC-2; first compound 0.253 µM) was 0.9, the relative viability (EMC-BAC-2; first compound 0.8 µM) was 0.842 and the relative viability (EMC-BAC-2; first compound 2.53 µM) was 0.817. It also gave a relative viability (EMC-BAC-2; first compound 8 µM) of 0.878, a relative viability (NCI-H1944; first compound 0.08 µM) of 1.04 and a relative viability (NCI-H1944; first compound 0.253 µM) of 1.26. The relative viability (NCI-H1944; first compound 0.8 µM) was 1.23 and the relative viability (NCI-H1944; first compound 8 µM) was 1.18.
